Measurements as given in ChEMBL document CHEMBL3351986, “Probing linker design in citric acid-ciprofloxacin conjugates” (2014).
Values after ≈ are worked out from the molar mass of the structure shown. Active and inactive are the calls of the source. The calls are words filed in the database; no cut-off is given here.

What was measured:
Escherichia coli [1] = assay: Ratio of compound MIC to ciprofloxacin MIC for Escherichia coli NCTC 10418 after 18 hrs by micro dilution method; format: functional
Pseudomonas aeruginosa [2] = assay: Ratio of compound MIC to ciprofloxacin MIC for Pseudomonas aeruginosa BIG 37 clinical isolate after 18 hrs by micro dilution method; format: functional
[3] = test system: Staphylococcus haemolyticus; assay: Ratio of compound MIC to ciprofloxacin MIC for Staphylococcus haemolyticus NCTC 11042 after 18 hrs by micro dilution method; format: functional
Burkholderia cepacia [4] = assay: Antimicrobial activity against Burkholderia cepacia BIG 121 after 18 hrs by micro dilution method; format: functional; details: BIG 121, 18 h
[5] = test system: Staphylococcus epidermidis; assay: Ratio of compound MIC to ciprofloxacin MIC for Staphylococcus epidermidis NCTC 2749 after 18 hrs by micro dilution method; format: functional
Staphylococcus aureus [6] = assay: Antimicrobial activity against Staphylococcus aureus BIG 52 after 18 hrs by micro dilution method; format: functional; details: BIG 52, 18 h
Pseudomonas aeruginosa [7] = assay: Antimicrobial activity against Pseudomonas aeruginosa BIG 63 after 18 hrs by micro dilution method; format: functional; details: BIG 63, 18 h
[8] = test system: Stenotrophomonas maltophilia; assay: Antimicrobial activity against Stenotrophomonas maltophilia N1119 after 18 hrs by micro dilution method; format: functional; details: N1119, 18 h
Staphylococcus aureus [9] = assay: Ratio of compound MIC to ciprofloxacin MIC for Staphylococcus aureus (Oxford) NCTC 6571 after 18 hrs by micro dilution method; format: functional
[10] = test system: Stenotrophomonas maltophilia; assay: Ratio of compound MIC to ciprofloxacin MIC for Stenotrophomonas maltophilia N1127 after 18 hrs by micro dilution method; format: functional
Serratia marcescens [11] = assay: Antimicrobial activity against Serratia marcescens BIG 11 NCTC 1377 after 18 hrs by micro dilution method; format: functional; details: BIG 11 NCTC 1377, 18 h
Burkholderia cepacia [12] = assay: Ratio of compound MIC to ciprofloxacin MIC for Burkholderia cepacia BIG 120 after 18 hrs by micro dilution method; format: functional
Pseudomonas aeruginosa [13] = assay: Ratio of compound MIC to ciprofloxacin MIC for Pseudomonas aeruginosa BIG 63 after 18 hrs by micro dilution method; format: functional
Burkholderia cepacia [14] = assay: Antimicrobial activity against Burkholderia cepacia BIG 9 NCTC 10744 after 18 hrs by micro dilution method; format: functional; details: BIG 9 NCTC 10744, 18 h
Staphylococcus aureus [15] = assay: Ratio of compound MIC to ciprofloxacin MIC for Staphylococcus aureus BIG 52 after 18 hrs by micro dilution method; format: functional
[16] = test system: Staphylococcus epidermidis; assay: Ratio of compound MIC to ciprofloxacin MIC for Staphylococcus epidermidis NCTC 11047 after 18 hrs by micro dilution method; format: functional
[17] = Inhibition of DNA gyrase (unknown origin) assessed as reduction in supercoiled form of DNA at 20 uM using ethidium bromide staining by gel electrophoresis
Burkholderia cepacia [18] = assay: Ratio of compound MIC to ciprofloxacin MIC for Burkholderia cepacia BIG 119 after 18 hrs by micro dilution method; format: functional
Burkholderia cepacia [19] = assay: Antimicrobial activity against Burkholderia cepacia BIG 120 after 18 hrs by micro dilution method; format: functional; details: BIG 120, 18 h
Burkholderia cepacia [20] = assay: Ratio of compound MIC to ciprofloxacin MIC for Burkholderia cepacia BIG 9 NCTC 10744 after 18 hrs by micro dilution method; format: functional
Staphylococcus aureus [21] = assay: Ratio of compound MIC to ciprofloxacin MIC for Staphylococcus aureus NCTC 13142 after 18 hrs by micro dilution method; format: functional
Staphylococcus aureus [22] = assay: Antimicrobial activity against Staphylococcus aureus HG-1 after 18 hrs by micro dilution method; format: functional; details: HG-1, 18 h
Staphylococcus aureus [23] = assay: Antimicrobial activity against Staphylococcus aureus NCTC 13142 after 18 hrs by micro dilution method; format: functional; details: NCTC 13142, 18 h
[24] = test system: Staphylococcus haemolyticus; assay: Antimicrobial activity against Staphylococcus haemolyticus NCTC 11042 after 18 hrs by micro dilution method; format: functional; details: NCTC 11042, 18 h
Burkholderia cepacia [25] = assay: Antimicrobial activity against Burkholderia cepacia BIG 118 after 18 hrs by micro dilution method; format: functional; details: BIG 118, 18 h
Burkholderia cepacia [26] = assay: Ratio of compound MIC to ciprofloxacin MIC for Burkholderia cepacia BIG 118 after 18 hrs by micro dilution method; format: functional
Pseudomonas aeruginosa [27] = assay: Antimicrobial activity against Pseudomonas aeruginosa BIG 37 clinical isolate after 18 hrs by micro dilution method; format: functional; details: BIG 37, 18 h
Pseudomonas aeruginosa [28] = assay: Ratio of compound MIC to ciprofloxacin MIC for Pseudomonas aeruginosa environmental isolate after 18 hrs by micro dilution method; format: functional
Staphylococcus aureus [29] = assay: Antimicrobial activity against Staphylococcus aureus (Oxford) NCTC 6571 after 18 hrs by micro dilution method; format: functional; details: (Oxford) NCTC 6571, 18 h
[30] = test system: Stenotrophomonas maltophilia; assay: Antimicrobial activity against Stenotrophomonas maltophilia N1124 after 18 hrs by micro dilution method; format: functional; details: N1124, 18 h
[31] = test system: Staphylococcus epidermidis; assay: Antimicrobial activity against Staphylococcus epidermidis NCTC 11047 after 18 hrs by micro dilution method; format: functional; details: NCTC 11047, 18 h
Serratia marcescens [32] = assay: Ratio of compound MIC to ciprofloxacin MIC for Serratia marcescens BIG 11 NCTC 1377 after 18 hrs by micro dilution method; format: functional
[33] = test system: Staphylococcus epidermidis; assay: Antimicrobial activity against Staphylococcus epidermidis NCTC 2749 after 18 hrs by micro dilution method; format: functional; details: NCTC 2749, 18 h
Pseudomonas aeruginosa [34] = assay: Antimicrobial activity against Pseudomonas aeruginosa environmental isolate BIG 39 after 18 hrs by micro dilution method; format: functional; details: BIG 39, 18 h
Escherichia coli [35] = assay: Antimicrobial activity against Escherichia coli NCTC 10418 after 18 hrs by micro dilution method; format: functional; details: NCTC 10418, 18 h
Burkholderia cepacia [36] = assay: Antimicrobial activity against Burkholderia cepacia BIG 119 after 18 hrs by micro dilution method; format: functional; details: BIG 119, 18 h
[37] = test system: Stenotrophomonas maltophilia; assay: Antimicrobial activity against Stenotrophomonas maltophilia N1127 after 18 hrs by micro dilution method; format: functional; details: N1127, 18 h
[38] = test system: Stenotrophomonas maltophilia; assay: Ratio of compound MIC to ciprofloxacin MIC for Stenotrophomonas maltophilia N1124 after 18 hrs by micro dilution method; format: functional
Pseudomonas aeruginosa [39] = assay: Ratio of compound MIC to ciprofloxacin MIC for Pseudomonas aeruginosa NCTC 10662 after 18 hrs by micro dilution method; format: functional
Burkholderia cepacia [40] = assay: Ratio of compound MIC to ciprofloxacin MIC for Burkholderia cepacia BIG 117 after 18 hrs by micro dilution method; format: functional
Burkholderia cepacia [41] = assay: Antimicrobial activity against Burkholderia cepacia BIG 117 after 18 hrs by micro dilution method; format: functional; details: BIG 117, 18 h
Pseudomonas aeruginosa [42] = assay: Antimicrobial activity against Pseudomonas aeruginosa NCTC 10662 after 18 hrs by micro dilution method; format: functional; details: NCTC 10662, 18 h
Escherichia coli [43] = assay: Antimicrobial activity against Escherichia coli BIG 0046 after 18 hrs by micro dilution method; format: functional; details: BIG 0046, 18 h
Staphylococcus aureus [44] = assay: Antimicrobial activity against Staphylococcus aureus NCTC 13143 after 18 hrs by micro dilution method; format: functional; details: NCTC 13143, 18 h
[45] = Inhibition of DNA gyrase (unknown origin) assessed as reduction in supercoiled form of DNA at 5 to 20 uM using ethidium bromide staining by gel electrophoresis

Question: Which Ratio (Escherichia coli [1]) does the source give for `O=C(O)CC(O)(CC(=O)NCC(=O)N1CCN(c2cc3c(cc2F)c(=O)c(C(=O)O)cn3C2CC2)CC1)C(=O)O` (racemic) here?
Answer: 1.23

Question: And the Ratio (Pseudomonas aeruginosa [2])?
Answer: 4.7

Question: And the Ratio [3]?
Answer: 75.3

Question: And the MIC (Burkholderia cepacia [4])?
Answer: > 36 µg/mL

Question: What about the Ratio [5] of the same compound?
Answer: 18.8

Question: And the MIC (Staphylococcus aureus [6])?
Answer: 16 µg/mL (≈ 28.4 µM)

Question: What about the MIC (Pseudomonas aeruginosa [7]) of the same compound?
Answer: 8 µg/mL (≈ 14.2 µM)

Question: What about the MIC [8] of the same compound?
Answer: > 36 µg/mL

Question: And the Ratio (Staphylococcus aureus [9])?
Answer: 37.6

Question: What about the Ratio [10] of the same compound?
Answer: 9.4

Question: And the MIC (Serratia marcescens [11])?
Answer: 0.5 µg/mL (≈ 0.889 µM)

Question: And the Ratio (Burkholderia cepacia [12])?
Answer: 9.4

Question: What about the Ratio (Pseudomonas aeruginosa [13]) of the same compound?
Answer: 18.8

Question: What about the MIC (Burkholderia cepacia [14]) of the same compound?
Answer: 8 µg/mL (≈ 14.2 µM)

Question: What about the Ratio (Staphylococcus aureus [15]) of the same compound?
Answer: 18.8

Question: And the Ratio [16]?
Answer: 75.3

Question: What about the inhibition [17] of the same compound?
Answer: Active

Question: What about the Ratio (Burkholderia cepacia [18]) of the same compound?
Answer: 4.7

Question: And the MIC (Burkholderia cepacia [19])?
Answer: 32 µg/mL (≈ 56.9 µM)

Question: And the Ratio (Burkholderia cepacia [20])?
Answer: 9.4

Question: What about the Ratio (Staphylococcus aureus [21]) of the same compound?
Answer: 18.8

Question: And the MIC (Staphylococcus aureus [22])?
Answer: > 36 µg/mL

Question: What about the MIC (Staphylococcus aureus [23]) of the same compound?
Answer: 16 µg/mL (≈ 28.4 µM)

Question: And the MIC [24]?
Answer: 16 µg/mL (≈ 28.4 µM)

Question: And the MIC (Burkholderia cepacia [25])?
Answer: 8 µg/mL (≈ 14.2 µM)

Question: And the Ratio (Burkholderia cepacia [26])?
Answer: 18.8

Question: What about the MIC (Pseudomonas aeruginosa [27]) of the same compound?
Answer: 16 µg/mL (≈ 28.4 µM)

Question: What about the Ratio (Pseudomonas aeruginosa [28]) of the same compound?
Answer: 4.72

Question: What about the MIC (Staphylococcus aureus [29]) of the same compound?
Answer: 16 µg/mL (≈ 28.4 µM)

Question: What about the MIC [30] of the same compound?
Answer: 32 µg/mL (≈ 56.9 µM)

Question: What about the MIC [31] of the same compound?
Answer: 16 µg/mL (≈ 28.4 µM)

Question: And the Ratio (Serratia marcescens [32])?
Answer: 4.91

Question: And the MIC [33]?
Answer: 8 µg/mL (≈ 14.2 µM)

Question: What about the MIC (Pseudomonas aeruginosa [34]) of the same compound?
Answer: 2 µg/mL (≈ 3.56 µM)

Question: What about the MIC (Escherichia coli [35]) of the same compound?
Answer: 0.125 µg/mL (≈ 0.222 µM)

Question: What about the MIC (Burkholderia cepacia [36]) of the same compound?
Answer: 32 µg/mL (≈ 56.9 µM)

Question: And the MIC [37]?
Answer: 32 µg/mL (≈ 56.9 µM)

Question: What about the Ratio [38] of the same compound?
Answer: 4.7

Question: And the Ratio (Pseudomonas aeruginosa [39])?
Answer: 4.72

Question: What about the Ratio (Burkholderia cepacia [40]) of the same compound?
Answer: 4.7

Question: And the MIC (Burkholderia cepacia [41])?
Answer: 8 µg/mL (≈ 14.2 µM)

Question: What about the MIC (Pseudomonas aeruginosa [42]) of the same compound?
Answer: 2 µg/mL (≈ 3.56 µM)

Question: And the MIC (Escherichia coli [43])?
Answer: 36 µg/mL (≈ 64 µM)

Question: And the MIC (Staphylococcus aureus [44])?
Answer: > 36 µg/mL

Question: Which results are given for `O=C(O)c1cn(C2CC2)c2cc(N3CCNCC3)c(F)cc2c1=O` [CIPROFLOXACIN]?
Answer: MIC (Burkholderia cepacia [4]): 8 µg/mL (≈ 24.1 µM); MIC (Staphylococcus aureus [6]): 0.5 µg/mL (≈ 1.51 µM); MIC [8]: 1 µg/mL (≈ 3.02 µM); MIC (Serratia marcescens [11]): 0.06 µg/mL (≈ 0.181 µM); MIC (Burkholderia cepacia [14]): 0.5 µg/mL (≈ 1.51 µM); MIC (Burkholderia cepacia [19]): 2 µg/mL (≈ 6.04 µM); MIC (Staphylococcus aureus [22]): > 36 µg/mL; MIC (Staphylococcus aureus [23]): 0.5 µg/mL (≈ 1.51 µM); MIC [24]: 0.125 µg/mL (≈ 0.377 µM); MIC (Burkholderia cepacia [25]): 0.25 µg/mL (≈ 0.754 µM); MIC (Staphylococcus aureus [29]): 0.25 µg/mL (≈ 0.754 µM); MIC [30]: 4 µg/mL (≈ 12.1 µM); MIC [31]: 0.125 µg/mL (≈ 0.377 µM); MIC [33]: 0.25 µg/mL (≈ 0.754 µM); inhibition [45]: Active; MIC (Burkholderia cepacia [36]): 4 µg/mL (≈ 12.1 µM); MIC [37]: 2 µg/mL (≈ 6.04 µM); MIC (Burkholderia cepacia [41]): 1 µg/mL (≈ 3.02 µM); MIC (Escherichia coli [43]): > 36 µg/mL; MIC (Staphylococcus aureus [44]): > 36 µg/mL
